Source: US4547517A, “Microbicidal N-sulphenylated hydantoins” (Bayer Aktiengesellschaft, priority 1983, dated 1985)
≈ marks a conversion by molar mass, not a printed value.

How the values were obtained:
[1] = test system: Fusarium nivale; test: Fusarium nivale test (rye)/seed treatment (Example 30); format: in vivo, Fusarium nivale (on rye); conditions: seed treatment, 500 mg/kg of seed, about 3 weeks after sowing, not dressed 12.8
Protocol: The active compounds are used as dry dressings. These are prepared by extending the particular active compound with a ground mineral to give a finely pulverulent mixture, which ensures uniform distribution on the seed surface. To apply the dressing, the infected seed is shaken with the dressing in a closed glass flask for 3 minutes. 2 batches of 100 grains of the rye are sown 1 cm deep in standard soil and are cultivated in a greenhouse at a temperature of about 10° C. and a relative atmospheric humidity of about 95%, in seedboxes which are exposed to light for 15 hours daily. About 3 weeks after sowing, the plants are evaluated for symptoms of snow mould.

[2] = test system: Erysiphe graminis f.sp. hordei; test: Erysiphe test (barley)/protective (Example 29); format: in vivo, Erysiphe graminis f.sp. hordei (on barley); conditions: protective, active compound concentration in spray liquor 0.025 % by weight, 7 days after inoculation
Protocol: Solvent: 100 parts by weight of dimethylformamide Emulsifier: 0.25 part by weight of alkylaryl polyglycol ether To produce a suitable preparation of active compound, 1 part by weight of active compound is mixed with the stated amounts of solvent and emulsifier, and the concentrate is diluted with water to the desired concentration. To test for protective activity, young plants are sprayed with the preparation of active compound until dew-moist. After the spray coating has dried on, the plants are dusted with spores of Erysiphe graminis f.sp. hordei. The plants are placed in a greenhouse at a temperature of about 20° C. and a relative atmospheric humidity of about 80%, in order to promote the development of powdery mildew pustules. Evaluation is carried out 7 days after the inoculation.

[3] = test system: Staphylococcus aureus; test: Action against bacteria, MIC in bouillon agar (Example 27); format: cell-based; conditions: 336 h, 28° C., 2 weeks
Protocol: The active compounds listed in Table II are added in concentrations of 1 to 5000 ppm to an agar containing bouillon as the nutrient medium. The nutrient medium is then infected with Staphylococcus aureus and the infected medium is kept at 28° C. and 60 to 70% relative atmospheric humidity for 2 weeks. The MIC is the lowest concentration of active compound at which no growth at all of the species of microbe used takes place.

[4] = test system: slime organisms; test: Action against slime organisms, MIC in Allens nutrient solution (Example 28); format: cell-based; conditions: 504 h, room temperature, 3 weeks
Protocol: The compounds according to Examples 3, 5 and 10 are each used, dissolved in a little acetone, in concentrations of 0.1 to 100 mg/liter in Allens nutrient solution (Arch. Mikrobiol. 17, 34-53 (1952)), which contains, in 4 liters of sterile water, 0.2 g of ammonium chloride, 4.0 g of sodium nitrate, 1.0 g of dipotassium hydrogen phosphate, 0.2 g of calcium chloride, 2.05 g of magnesium sulphate, 0.02 g of iron chloride and 1% of caprolactam. Shortly beforehand, the nutrient solution is infected with slime organisms (about 10^6 germs/ml), which have been isolated from spinning water circulations used in the manufacture of polyamide. Nutrient solutions which contain the minimum inhibitory concentration (MIC) or higher concentrations of active compound are still completely clear after culture at room temperature for 3 weeks, that is to say the marked multiplication of the microbes and formation of slime noticeable after 3 to 4 days in nutrient solutions containing no active compound are absent.

[5] = test system: Penicillium glaucum; test: MIC against fungi in beer wort/peptone agar (Example 26); format: cell-based; conditions: 336 h, 28° C., 2 weeks
Protocol: (§1) Active compounds according to the invention are added in concentration of 0.1 mg/liter to 5,000 mg/liter to an agar prepared from beer wort and peptone. After storage at 28° C. and 60 to 70% relative atmospheric humidity for 2 weeks, the MIC is determined. The MIC is the lowest concentration of active compound at which no growth at all of the species of microbe used takes place; it is shown in the Table which follows.

[6] = test system: Polyporus versicolor; test: as above; format: cell-based; conditions: Trametes versicolor, 336 h, 28° C., 2 weeks
Protocol: as §1

[7] = test system: Sclerophoma pityophila; test: as above; format: cell-based; conditions: Sydowia polyspora, 336 h, 28° C., 2 weeks
Protocol: as §1

[8] = test system: Alternaria tenuis; test: as above; format: cell-based; conditions: Alternaria alternata, 336 h, 28° C., 2 weeks
Protocol: as §1

[9] = test system: Coniophora cerebella; test: as above; format: cell-based; conditions: 336 h, 28° C., 2 weeks
Protocol: as §1

[10] = test system: Aspergillus niger; test: as above; format: cell-based; conditions: 336 h, 28° C., 2 weeks
Protocol: as §1

[11] = test system: Aureobasidium pullulans; test: as above; format: cell-based; conditions: 336 h, 28° C., 2 weeks
Protocol: as §1

[12] = test system: Lentinus tigrinus; test: as above; format: cell-based; conditions: 336 h, 28° C., 2 weeks
Protocol: as §1

[13] = test system: Chaetomium globosum; test: as above; format: cell-based; conditions: 336 h, 28° C., 2 weeks
Protocol: as §1

[14] = test system: Pyricularia oryzae; format: in vivo, Pyricularia oryzae (on rice); conditions: rice, protective; active compound concentration 0.025 %; 4 days after inoculation

Structure (SMILES)	MIC [3]	MIC [4]	MIC [5]	MIC [6]	MIC [7]	MIC [8]	MIC [9]	MIC [10]	MIC [11]	MIC [12]	MIC [13]	also measured
CN1C(=O)CN(SC(F)(Cl)Cl)C1=O	–	–	–	–	–	–	–	–	–	–	–	Diseased plants in % of the total plants emerged [1]: 0.0 % of the total plants emerged
O=C1C2CC=CCC2C(=O)N1SC(Cl)(Cl)Cl (stereo not drawn) [Captan, reference compound]	–	–	–	–	–	–	–	–	–	–	–	Diseased plants in % of the total plants emerged [1]: 5.4 % of the total plants emerged; Disease infestation in % of the untreated control [2]: 100 % of the untreated control
CN1C(=O)N(SC(F)(Cl)Cl)C(C)(C)C1=O [Example 3]	50 µg/mL (≈ 182 µM)	3 µg/mL (≈ 10.9 µM)	50 µg/mL (≈ 182 µM)	7.5 µg/mL (≈ 27.3 µM)	5 µg/mL (≈ 18.2 µM)	1.5 µg/mL (≈ 5.45 µM)	1 µg/mL (≈ 3.63 µM)	10 µg/mL (≈ 36.3 µM)	1 µg/mL (≈ 3.63 µM)	1 µg/mL (≈ 3.63 µM)	1.5 µg/mL (≈ 5.45 µM)	–
CCCCN1C(=O)CN(SC(F)(Cl)Cl)C1=O [Example 5]	100 µg/mL (≈ 346 µM)	5 µg/mL (≈ 17.3 µM)	100 µg/mL (≈ 346 µM)	15 µg/mL (≈ 51.9 µM)	5 µg/mL (≈ 17.3 µM)	2 µg/mL (≈ 6.92 µM)	0.75 µg/mL (≈ 2.59 µM)	50 µg/mL (≈ 173 µM)	2 µg/mL (≈ 6.92 µM)	0.75 µg/mL (≈ 2.59 µM)	3.5 µg/mL (≈ 12.1 µM)	–
CC1(C)C(=O)N(C2CCCCC2)C(=O)N1SC(F)(Cl)Cl [Example 10]	50 µg/mL (≈ 146 µM)	100 µg/mL (≈ 291 µM)	75 µg/mL (≈ 218 µM)	15 µg/mL (≈ 43.7 µM)	5 µg/mL (≈ 14.6 µM)	3.5 µg/mL (≈ 10.2 µM)	0.75 µg/mL (≈ 2.18 µM)	20 µg/mL (≈ 58.3 µM)	3.5 µg/mL (≈ 10.2 µM)	0.75 µg/mL (≈ 2.18 µM)	1.5 µg/mL (≈ 4.37 µM)	–
O=C1CN(SC(F)(Cl)Cl)C(=O)N1C1CCCCC1 [drawing 16]	–	–	–	–	–	–	–	–	–	–	–	Disease infestation in % of the untreated control [2]: 0.0 % of the untreated control
O=C1C2CC=CCC2C(=O)N1SC(Cl)(Cl)Cl (stereo not drawn) [drawing 19, reference compound]	–	–	–	–	–	–	–	–	–	–	–	Disease infestation in % of the untreated control [14]: 50 % of the untreated control
O=C1CN(SC(F)(Cl)Cl)C(=O)N1C1CCCCC1 [drawing 20]	–	–	–	–	–	–	–	–	–	–	–	Disease infestation in % of the untreated control [14]: 13 % of the untreated control
